Source: article PMC8379219 (Nature Communications, 2021)

Columns and labels:
SERT = conditions: cited from earlier work
SERT Q332A = SERT Q332A (Homo sapiens, UniProt P31645, Q332A); experiment: [3H]5-HT transport, COS-7 cells, S2 mutant Q332A; format: cell-based
Procedure: (§1) All determinations were performed in triplicate.

SERT F335A = SERT F335A (Homo sapiens, UniProt P31645, F335A); experiment: [3H]5-HT transport, COS-7 cells, S2 mutant F335A; format: cell-based
Procedure: as §1

SERT WT = SERT WT (Homo sapiens, UniProt P31645); experiment: [3H]IMI dissociation rate assay (allosteric potency), COS-7 membranes; format: binding; parameters: expressed in transfected cells; host or cells: COS-7;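 note: radioligand pre-bound 30 min at room temperature to equilibrium, then dissociation followed over 5–70 min, ended by filtration through GF/B filters, at least three independent experiments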

SMILES: NC(=O)c1ccc2c(c1)CO[C@@]2(CCCN1CCC(c2ccc3ccc(=O)[nH]c3c2)CC1)c1ccc(F)cc1 [Lu AF60097]
- Allosteric potency (SERT; [3H]IMI bound to S1): ~ 30 nM

SMILES: NCCc1c[nH]c2ccc(O)cc12 [5-HT, 5-[1,2-^3H]hydroxytryptamine]
- 5-HT VMAX (SERT Q332A): 1151 ± 64 pmol/min/10^5 cells
- 5-HT VMAX (SERT F335A): 2368 ± 394 pmol/min/10^5 cells

SMILES: CN(C)CCCN1c2ccccc2CCc2ccccc21 [IMI, Imipramine]
- Allosteric properties at SERT (SERT; ref Plenge et al 1990 Eur J Pharmacol): very weak allosteric properties
- Slope for [3H]IMI dissociation (SERT WT): 0.528 ± 0.012 min⁻¹
